Laboratory results reported in PMC12040169 (PLOS Biology, 2025).

Test: in vitro
Conditions: human, hela cells, % viability

Row | Structure (SMILES) | viability at 28.5 h, 10 µM [%] | viability at 28.5 h, 10 µM (bulk resorufin, single well) [%]
1 | Cc1ccc2nc(Nc3nc(C)cc(C)n3)[nH]c2c1 [CBK263634] | 97.9 | –
2 | Cc1ccccc1NC(=O)Nc1cccc(F)c1 [CBK105831] | 88.3 | –
3 | CC(C)[C@H](CO)Nc1nc(-c2cccc3ccccc23)cnc1N [CBK063701] | 101 | –
4 | CCn1cc(-c2cncn2CC(C)n2nc(C)cc2C)cn1 (stereo not drawn) [CBK281775] | 87.1 | –
5 | Cc1onc(-c2ccccc2Cl)c1C(=O)Nc1ccc(CC(=O)O)cc1 [CBK269623] | 89.2 | –
6 | Cc1cc(Sc2nc[nH]n2)c2c(Cl)ccc(Cl)c2n1 [CBK025959] | 109 | –
7 | FC(F)(F)c1ccc(OCCN2CCNCC2)nc1 [CBK113462] | 110 | –
8 | CC(=O)NCCN1CC[C@H]2CN(C(=O)COc3ccccc3)CC[C@H]2CC1=O [CBK288783] | 84.6 | –
9 | CCOC(=O)c1c(NC(=O)CN2CCOCC2)sc2c1CCC2 [CBK262548] | 102 | –
10 | CCN(CC)CC(=O)Nc1ccccc1OC [CBK266213C] | 113 | –
11 | COc1ccc(C2CC(c3nc4ccccc4[nH]3)=NN2C(=O)CCN2CCCCC2)cc1 (stereo not drawn) [CBK267673] | 99.8 | –
12 | Cc1ccc(Cl)cc1N1CCN(S(=O)(=O)N(C)C)CC1 [CBK270284] | 101 | –
13 | CN(C)S(=O)(=O)N(CC(=O)N1CCN(Cc2ccccc2)CC1)c1ccccc1 [CBK268423] | 112 | –
14 | O=C(NCc1ccc(F)cc1)N(Cc1cccc(Cl)c1)CC1CCNCC1 [CBK119479] | 117 | –
15 | COc1ccc(C2=C(CC(=O)O)C(=O)CC2)cc1 [CBK264812] | 89.2 | –
16 | COc1ccc(-c2nc3ccccc3s2)cc1NC(=O)c1ccc(OCC(C)C)cc1 [CBK268878] | 94.7 | –
17 | CCN(c1ccccc1C(=O)O)S(=O)(=O)/C=C/c1ccccc1 [CBK287236] | 96.7 | –
18 | O=C(NCc1cccc(C(F)(F)F)c1)N1CCCC(CO)C1 (stereo not drawn) [CBK156033] | 89.5 | –
19 | Cc1cc(C)n(CCCNC(=O)Nc2cccnc2)n1 [CBK304820] | 84.6 | –
20 | COc1ccc(Br)cc1S(=O)(=O)Nc1cccc(C(=O)Nc2ccc(F)cc2)c1 [CBK038981] | 75.4 | –
21 | Cc1ccc(-c2nc(Nc3ccc(F)cc3)sc2CC(=O)O)cc1 [CBK264286] | 89.4 | –
22 | CC(C)(C)C(=O)/N=c1/[nH]nc(-c2cccnc2)s1 [CBK288203] | 98.3 | –
23 | CN(C)CCC(c1ccccc1)n1cncc1-c1cnn(C)c1 (stereo not drawn) [CBK281742] | 93.6 | –

Row | Structure (SMILES) | viability at 28.5 h, 10 µM [%] | viability at 28.5 h, 10 µM (bulk resorufin, single well) [%]
24 | CC(C)NC(=O)N[C@H]1CCN2C(=O)N(c3ccc(F)c(Cl)c3)C(=O)[C@@H]2C1 [CBK289540] | 83.1 | –
25 | Cc1ccc(Oc2ccc(S(=O)(=O)N3CCOCC3)cc2C(=O)O)cc1 [CBK286748] | 90.4 | –
26 | CC1(C)CC(=O)C=C(SCC(=O)C(C)(C)C)S1 [CBK005523] | 106 | –
27 | COc1ccc(S(=O)(=O)N2CCN(C(=S)Nc3ccc(S(N)(=O)=O)cc3)CC2)cc1 [CBK266898] | 92.6 | –
28 | COc1ccc2[nH]nc(CN3CCCC(c4cc(O)nc(C)n4)C3)c2c1 (stereo not drawn) [CBK306703] | 87.6 | –
29 | CC(C)CC(=O)NC(N=C(S)Nc1sc2c(c1C#N)CCCC2)C(Cl)(Cl)Cl (stereo not drawn) [CBK261049] | 85.2 | –
30 | CN1C=NC2C1C(=O)N(CCn1c(=O)c3c(ncn3C)n(C)c1=O)C(=O)N2C (stereo not drawn) [CBK268678] | 101 | –
31 | CN1CCN(C(=O)CNS(=O)(=O)c2ccc(Br)cc2)CC1 [CBK034478] | 101 | –
32 | O=C(c1cc2ncc(Br)cn2n1)N1CCOCC1 [CBK058513] | 97.9 | –
33 | CCCCSc1nc(N)cc(N2CCC(C(=O)N3CCOCC3)CC2)n1 [CBK306619] | 96.8 | –
34 | COc1ccccc1NC(=O)NC(=O)C1CCN(C)CC1 [CBK034830] | 96.6 | –
35 | CN(C)CCN(C)Cc1ccccc1O [CBK261875] | 103 | –
36 | COc1ccc(C)cc1S(=O)(=O)Nc1cc(N2CCN(CC3CC3)CC2)c2occc2c1 [CBK073624C] | 94.2 | –
37 | C/C(=N\N1CCN(Cc2cccc3ccccc23)CC1)c1ccncc1 [CBK263574] | 98.9 | –
38 | O=C(N/N=C/c1c(Cl)cccc1Cl)c1cc(Br)ccc1O [CBK262022] | 95.1 | –
39 | O=C(COc1ccc2ccccc2c1)N[C@@H](C(=O)O)c1ccc(O)cc1 [CBK286571] | 88.8 | –
40 | COc1cccc(CNC23CC4CC(CC(C4)C2)C3)c1OCc1ccccc1 [CBK268873C] | 92 | –
41 | Cc1cc(C)nc(-n2[nH]c(N)cc2=O)n1 [CBK270164] | 85.7 | –
42 | O=C(c1cccs1)n1nc(NCc2ccccc2)nc1NCc1ccccc1 [CBK269149] | 107 | –
43 | CC1(C)C2CCC1(CS(=O)(=O)N(Cc1ccccc1)Cc1ccccc1)C(=O)C2 (stereo not drawn) [CBK266082] | 107 | –
44 | O=c1cc(-c2ccccc2)nc(SCc2nc(-c3cccs3)no2)[nH]1 [CBK268416] | 107 | –
45 | C=CCn1c(-c2sc(NC(=O)c3ccc(CNC(=O)NC(C)C)cc3)nc2C)n[nH]c1=S [CBK297764] | 111 | –
46 | O=C(CC(NCCO)C(=O)O)Nc1cccc(C(F)(F)F)c1 (stereo not drawn) [CBK267065] | 109 | –

Row | Structure (SMILES) | viability at 28.5 h, 10 µM [%] | viability at 28.5 h, 10 µM (bulk resorufin, single well) [%]
47 | O=C(CCc1c[nH]c2ccccc12)Nc1ccccc1C(=O)O [CBK287242] | 108 | –
48 | COc1ccc(-c2ccccc2)cc1NCc1cc2cc(OC)c(OC)cc2[nH]c1=O [CBK286160] | 99.5 | –
49 | O=C(O)CCc1ccc(NS(=O)(=O)c2ccc(N3CCCC3=O)cc2)cc1 [CBK299788] | 116 | –
50 | O=C(Oc1ccc(-n2ccnc2)cc1)c1ccc(-c2ccccc2)cc1 [CBK095145] | 93.3 | –
51 | CCOC(NC(=O)Nc1ccc(Br)cc1)(C(F)(F)F)C(F)(F)F [CBK027208] | 91.2 | –
52 | C=CCOc1ccc(OCCN2CC(C)OC(C)C2)cc1 (stereo not drawn) [CBK269646C] | 112 | –
53 | COc1ccc(C(NC(=O)c2ccc(Cn3nc(C)cc3C)o2)c2ccccc2)cc1 (stereo not drawn) [CBK285578] | 87.8 | –
54 | O=C(O)[C@H]1CCCN1Cc1cc(Cl)ccc1OCCCn1ccnc1 [CBK307436] | 109 | –
55 | C[C@H](NC(=O)N1CCN(C(=O)CCCc2c[nH]c3ccccc23)CC1)C(=O)O [CBK286749] | 88 | –
56 | Cc1cc(C)c2c(n1)oc1c(NC(C)C)ncnc12 [CBK287917] | 108 | –
57 | CN(CCCNC(=O)c1ncoc1-c1cccs1)c1ccccc1 [CBK282248] | 103 | –
58 | Cc1c(Cl)cccc1S(=O)(=O)Nc1ccsc1C(=O)O [CBK004549] | 97.7 | –
59 | Cc1cc(Cl)cc(Cl)c1S(=O)(=O)Nc1cccc(C(=O)O)c1 [CBK155682] | 93 | –
60 | O=C(Nc1ccc(C(F)(F)F)cc1)N(Cc1ccc2ccccc2c1)CC1CCNCC1 [CBK056720] | 88.9 | –
61 | COc1ccccc1CCNCc1ccccc1Br [CBK015149] | – | 87
62 | O=C(CC1NCCNC1=O)Nc1cccc(Cl)c1 (stereo not drawn) [CBK266454] | 105 | –
63 | O=C(O)Cc1ccc(OCC(=O)NCCCSc2ccccc2)cc1 [CBK296630] | 91.9 | –
64 | CC(C)CNC(=O)N1CCNC(=O)C1 [CBK155864] | 86.4 | –
65 | CC1CCCC(C)N1C(=O)Cn1ncn2c(cc3ccsc32)c1=O (stereo not drawn) [CBK284191] | 110 | –
66 | CS(=O)(=O)c1sc(C(=O)NC(=S)Nc2cccc(C(F)(F)F)c2)c2c1C=CCC2 [CBK005654] | 96.9 | –
67 | Cc1cccc(C)c1NC(=O)C(C)Sc1nc2ccccc2c(=O)n1CC1CCCO1 (stereo not drawn) [CBK068151] | 95 | –
68 | COC1C(O)C(CO)OC1n1cnc2c(=O)[nH]cnc21 (stereo not drawn) [CBK201328] | 91.3 | –
69 | Cc1nc2nc(N)nn2c(C)c1CCC(=O)NCc1ccccc1 [CBK304986] | 95.7 | –

Row | Structure (SMILES) | viability at 28.5 h, 10 µM [%] | viability at 28.5 h, 10 µM (bulk resorufin, single well) [%]
70 | CS(=O)(=O)NCC1(c2ccccc2)CCN(S(=O)(=O)c2c(Cl)cccc2Cl)CC1 [CBK051633] | 89.9 | –
71 | COCCCNC(=O)c1cnn2c(C)c(Cc3cccc(F)c3)c(C)nc12 [CBK162126] | 116 | –
72 | CNC(=O)CSc1nccc(C(F)(F)F)n1 [CBK107759] | 101 | –
73 | CN1CCN(c2nc(-c3ccc(-c4ccccc4)cc3)cnc2N)CC1 [CBK063421] | 106 | –
74 | CC(NC(=O)CSc1nnc(-c2ccc(Cl)cc2)n1-c1ccccc1)c1ccccc1 (stereo not drawn) [CBK264993] | 87 | –
75 | O=C1CCC2(CCN1)CCN(Cc1cccc(-c3ccco3)c1)CC2 [CBK307264] | 115 | –
76 | CC(C)c1cc(C(=O)N2CCCCCC2c2cnn(C)c2)no1 (stereo not drawn) [CBK284971] | 108 | –
77 | CC(=O)Nc1cccc(-c2ccc(Nc3cccc(N(C)C)c3)nc2)c1 [CBK036829] | 97.9 | –
78 | c1ccc(C2CCCNC2)cc1 (stereo not drawn) [CBK011753] | 100 | –
79 | Cc1ccc(NC(=O)COC(=O)CCc2c[nH]c(O)n2)cc1 [CBK265562] | 89.9 | –
80 | CCCNC(=O)c1ccc(C)c(S(=O)(=O)Nc2ccc(C)cc2C)c1 [CBK269084] | 88.8 | –
81 | CCn1cncc1CN1CCC(O)(c2ccccc2F)CC1 [CBK282817] | 112 | –
82 | O=C(Cn1c(NCCCO)nc2ccccc21)c1ccco1 [CBK264099B] | 94.7 | –
83 | O=C(O)c1ccc(/C=N/NC(=O)c2ccco2)cc1 [CBK263569] | 90.5 | –
84 | Cc1cccc2cc(CN(Cc3ccco3)C(=O)C3CCCCC3)c(O)nc12 [CBK269178] | 102 | –
85 | CCOC(=O)N1CCN(S(=O)(=O)c2ccc3c(c2)oc(=O)n3C)CC1 [CBK304667] | 105 | –
86 | CCOc1ccccc1Nc1c([N+](=O)[O-])nn(-c2ccc(OC)cc2)[n+]1[O-] [CBK268411] | 90.2 | –
87 | O=C(Nc1cccc2ccccc12)C(c1ccccc1)N1CCOCC1 (stereo not drawn) [CBK269388] | 102 | –
88 | COc1ccccc1-c1cc(C(=O)NCCCN2CCOCC2)c2ccccc2n1 [CBK267780] | 83.8 | –
89 | Cc1ccc(NC(=O)CSCc2nc3ccccc3[nH]2)cc1 [CBK267299] | 108 | –
90 | CC(C)NC(=O)Nc1ccc(C(=O)N(CC#N)C2CC2)cc1 [CBK306120] | 90.5 | –
